Laboratory results taken from patent publication US20060159617A1, “Small technetium-99m and rhenium labeled agents and methods for imaging tissues, organs and tumors” (priority 2002, published 2006).

Key:
[1] = Determination of lipophilicity and pKa values by HPLC; type: physicochemical; details: for k' (pH = 7.4): HPLC capacity factor at pH 7.4; for k' (Max): HPLC capacity factor, maximum; for pKa (Corrected): HPLC method, corrected with standard amines
Method: The lipophilicity and pKa values of all complexes were determined using HPLC methods described previously (Stylli, C.; Theobald, A. E. Determination of Ionization Constants of Radiopharmaceuticals in Mixed Solvents by HPLC. Appl. Radiat. Isot., 1987, 38, 701-708; Johannsen, B.; Scheunemann, M.; Spies, H.; Brust, P.; Wober, J.; Syhre, R.; Pietzsch, H.-J. Technetium(V) and Rhenium(V) Complexes for 5-HT2A Serotonin Receptor Binding: Structure-Affinity Considerations. Nucl. Med. Biol., 1996, 23, 429-438; and Johannsen, B.; Berger, R.; Brust, P.; Pietzsch, H.-J.; Scheunemann, M.; Seifert, S.; Spies, H.; Syhre, R. Structural Modification of Receptor-Binding Technetium-99m Complexes in Order to Improve Brain Uptake. Eur. J. Nucl. Med. 1997, 24, 316-319). […] The mobile phase was acetonitrile:phosphate buffer (0.01 M), 3:1, v/v, with the aqueous buffer adjusted to the desired pH between 3 and 11. The capacity factor (k′) was calculated for each determination (Braumann, T.; Grimme, L. H. Determination of Hydrophobic Parameters for Pyridazinone Herbicides by Liquid-Liquid Partition and Reversed-Phase High-Performance Liquid Chromatography. J. Chromatogr. 1981, 206, 7-15; El Tayer, N.; van der Waterbeemd, H.; Testa, B. Lipophilicity Measurements of Protonated Basic Compounds by Reversed-Phase High-Performance Liquid Chromatography. II. Procedure for the Determination of a Lipophilic Index Measured by Reversed-Phase High Performance Liquid Chromatography. J. Chromatogr. 1985, 320, 305-312; and Minick, D. J.; Frenz, J. H.; Patrick, M. A.; Brent, D. A. A Comprehensive Method for Determining Hydrophobicity Constants by Reversed-Phase High-Performance Liquid Chromatography. J. Med. Chem., 1988, 31, 1923-1933) and the partition coefficient at a given pH (D or logD) were calculated from the equation: log D=a log k′+b where the parameters a and b are predetermined using standard amines. The fitted points of inflection from the sigmoidal DHPLC/pH profiles permit calculation of the pKHPLC(Stylli, C.; Theobald, A. E. Determination of Ionization Constants of Radiopharmaceuticals in Mixed Solvents by HPLC. Appl. Radiat. Isot., 1987, 38, 701-708). The aqueous ionization constants pKa were calculated from the pKHPLC values after correction with a predetermined correction factor obtained using standard amine compounds. Log P values of the neutral complexes were estimated from the respective upper plateau of the sigmoidal log D/pH curve in the alkaline range.

σ1 receptor = molecular target: T1, σ1 receptor (Cavia porcellus, UniProt Q60492); assay: Sigma-1 receptor competition binding assay with [3H]-(+)-pentazocine; parameters: species or system guinea pig; details: apparent Ki (Cheng-Prusoff), brain membranes
T1 construct: The membranes were prepared from guinea pig brain (minus cerebellum) as described above; from tissue; host or cells: guinea pig brain (minus cerebellum) membranes
T1 sequence (Q60492 whole entry): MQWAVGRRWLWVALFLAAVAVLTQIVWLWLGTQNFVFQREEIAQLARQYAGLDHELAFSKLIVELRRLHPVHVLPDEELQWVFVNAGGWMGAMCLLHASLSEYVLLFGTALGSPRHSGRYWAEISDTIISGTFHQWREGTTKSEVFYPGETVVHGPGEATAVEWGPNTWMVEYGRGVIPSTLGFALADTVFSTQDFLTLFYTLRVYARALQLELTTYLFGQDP
Method: The in vitro σ1 receptor binding affinities of rhenium coordinated complexes were determined in a competition assay using […] and high-affinity σ1 ligand [3H]-(+)-pentazocine (28 Ci/mmol, NEN Life Science Inc., Cambridge, Mass.). See, Mol. Neuropharmacol. 1993, 3, 117-126.
The membranes were prepared from guinea pig brain (minus cerebellum) as described above and stored at −70 ° C. Twelve concentrations of the nonradioactive rhenium complexes ranging from 1×10^−11 to 1×10^−3 and protein samples (0.15 mg of membrane protein) were incubated with […] [3H]-(+)-pentazocine in a total volume of 0.25 mL of Tris-HCl (50 mM, pH 8.0). Incubations were carried out for 120 min at 25° C. All assays were terminated by dilution with 5 mL of ice-cold Tris-HCl (10 mM), pH 8.0, and solution were filtered through glass-fiber filters (Whatman GF/F; presoaked in 0.5% polyethyleneimine for 30 min at 25° C.). Filters were then washed three times with 5 mL of ice-cold Tris-HCl (50 mM, pH 8.0), and counted in Hionic-Fluor cocktail (Packard, Groningen, the Netherlands). The corresponding IC50 values were determined with Origin 6.0 software (OriginLab, Northampton, Mass.) and were used for the calculation of the apparent Ki values with the Cheng-Prusoff equation. See, Biochem. Pharmacol. 1973, 22, 3099-3108.

Structure (SMILES) | k' (pH = 7.4) [1] | k' (Max) [1] | pKa (Corrected) [1] | Ki (σ1 receptor)
O=C1CN(CCCN2CCC(Cc3ccccc3)CC2)CC[S][Re]2(=[O])[S]CC[N]12 (centres unmarked) [Re-15] | 60 | 160 | 8.34 | 0.547 µM
COc1ccccc1C1CCN(CCCN2CC[S][Re]3(=[O])[S]CC[N]3C(=O)C2)CC1 (centres unmarked) [Re-16] | 57 | 117 | 8.09 | 4.83 µM
